pIC50: −log10 of the molar value.
Molecular target: T1, Human α-thrombin (Homo sapiens, UniProt P00734)
T1 construct: 12 μL of α-thrombin solution (Human α-thrombin, Sigma Chemical Co. or Hematologic Technologies); purchased Sigma Chemical Co. or Hematologic Technologies
Assay: Test B: Determination of thrombin inhibition with a chromogenic, robotic assay
Format: biochemical
Procedure: The thrombin inhibitor potency is measured with a chromogenic substrate method, in a Plato 3300 robotic microplate processor (Rosys AG, CH-8634 Hombrechtikon, Switzerland), using 96-well, half volume microtitre plates (Costar, Cambridge, Mass., USA; Cat No 3690). Stock solutions of test substance in DMSO (72 μL), 0.1-1 mmol/L, are diluted serially 1:3 (24+48 μL) with DMSO to obtain ten different concentrations, which are analysed as samples in the assay. 2 μL of test sample is diluted with 124 μL assay buffer, 12 μL of chromogenic substrate solution (S-2366, Chromogenix, Mölndal, Sweden) in assay buffer and finally 12 μL of α-thrombin solution (Human α-thrombin, Sigma Chemical Co. or Hematologic Technologies) in assay buffer, are added, and the samples mixed. The final assay concentrations are: test substance 0.00068-133 μmol/L, S-2366 0.30 mmol/L, α-thrombin 0.020 NIHU/mL. The linear absorbance increment during 40 minutes incubation at 37° C. is used for calculation of percentage inhibition for the test samples, as compared to blanks without inhibitor.

## Cc1ccc(C)c(CCNn2ccc(C)c(CC(=O)NCc3ccc(C(=N)N)cc3)c2=O)c1 [2(xi), N-(4-Carbamimidoylbenzyl)-2-{1-[2-(2,5-dimethylphenyl)ethylamino]-4-methyl-2-oxo-1,2-dihydropyridin-3-yl}acetamide]
  pIC50: 7.04
